Test results as given in publication PMC11045757, “Group 3 medulloblastoma transcriptional networks collapse under domain specific EP300/CBP inhibition” (Nature Communications, 2024).

Test system: 460 barcoded cancer cell lines
Experiment: PRISM pooled barcoded cancer cell line growth screen, 10-point dose-response, 5 days, AUC
Type: cell-based
Set-up: scale not given here
From the text: Several small molecule inhibitors of distinct protein domains of EP300/CBP are available, though the majority target the histone acetyltransferase domain (HAT) or bromodomain (BRD)[5],[10],[21],[22]. […] We used these tools to investigate the relative contribution of the EP300/CBP BRD or HAT domain to tumor cell growth (Fig. 1a). To do so, we performed 10-point, dose-response growth assays using mixed pools of 460 barcoded cancer cell lines, over five days of treatment in vitro[33],[34]. Growth was measured using an area-under-the-curve (AUC) approach (Supplementary Table 1, Supplementary Fig. 1a). […] Given potential differences in compound penetration and solubility, and to compare the relative cell line and tumor-specific effects of these two compounds in assays performed non-simultaneously, we performed a median normalization of each dataset (Supplementary Table 2).

## CO[C@H]1CC[C@H](n2c([C@@H]3CCCC(=O)N3c3ccc(F)c(F)c3)nc3cc(-c4c(C)noc4C)ccc32)CC1 [CCS1477]
22RV1, Prostate Cancer
  AUC: 0.7824
42MGBA, Glioma
  AUC: 0.959
143B, Osteosarcoma
  AUC: 0.7756
639V, Bladder Cancer
  AUC: 1
647V, Bladder Cancer
  AUC: 0.9387
697, B-cell Leukemia
  AUC: 0.8421
769P, Kidney Cancer
  AUC: 0.866
5637, Bladder Cancer
  AUC: 0.9709
8305C, Thyroid Cancer
  AUC: 0.9842
A101D, Melanoma
  AUC: 0.9949
A204, Rhabdoid
  AUC: 0.6935
A253, Head and Neck Cancer
  AUC: 0.8895
A375, Melanoma
  AUC: 0.896
A427, Lung Cancer
  AUC: 0.8534
A673, Ewing Sarcoma
  AUC: 0.974
A1207, Glioblastoma
  AUC: 1
ACHN, Kidney Cancer
  AUC: 0.9303
AM38, Glioblastoma
  AUC: 0.9422
AN3CA, Endometrial/Uterine Cancer
  AUC: 0.9421
AU565, Breast Cancer
  AUC: 0.9734
BDCM, AML
  AUC: 0.9113
BEN, Lung Cancer
  AUC: 0.7123
BFTC905, Bladder Cancer
  AUC: 0.9629
BHT101, Thyroid Cancer
  AUC: 0.7216
BICR16, Head and Neck Cancer
  AUC: 0.7276
BICR18, Head and Neck Cancer
  AUC: 0.7534
BICR22, Head and Neck Cancer
  AUC: 0.8618
BICR31, Head and Neck Cancer
  AUC: 0.8654
BICR56, Head and Neck Cancer
  AUC: 0.8942
BT16, Rhabdoid
  AUC: 0.8481
BT474, Breast Cancer
  AUC: 0.9512
C32, Melanoma
  AUC: 0.5879
C8166, Lymphoma
  AUC: 0.8246
CADOES1, Ewing Sarcoma
  AUC: 0.8986
CAKI1, Kidney Cancer
  AUC: 0.9906
CAL27, Head and Neck Cancer
  AUC: 0.9982
CAL54, Kidney Cancer
  AUC: 0.8391
CAL62, Thyroid Cancer
  AUC: 0.9564
CAL78, Chondrosarcoma
  AUC: 0.8691
CAL120, Breast Cancer
  AUC: 0.9482
CAOV3, Ovarian Cancer
  AUC: 0.8478
CBAGPN, Ewing Sarcoma
  AUC: 0.8224
CCK81, Colon/Colorectal Cancer
  AUC: 0.8227
CHL1, Melanoma
  AUC: 0.6111
CHLA06ATRT, Rhabdoid
  AUC: 1
CHLA10, Ewing Sarcoma
  AUC: 0.9814
CHLA15, Neuroblastoma
  AUC: 0.7397
CHLA57, Ewing Sarcoma
  AUC: 0.9985
CHP212, Neuroblastoma
  AUC: 0.8537
CI1, B-cell Lymphoma
  AUC: 0.9278
CJM, Melanoma
  AUC: 0.8842
CL11, Colon/Colorectal Cancer
  AUC: 0.761
CL34, Colon/Colorectal Cancer
  AUC: 0.9427
CMLT1, CML
  AUC: 0.8343
COGAR359, Rhabdoid
  AUC: 1
COGE352, Ewing Sarcoma
  AUC: 0.998
COLO320, Colon/Colorectal Cancer
  AUC: 0.8831
COLO678, Colon/Colorectal Cancer
  AUC: 0.8848
COLO783, Melanoma
  AUC: 0.9736
COLO792, Melanoma
  AUC: 0.8076
CORL23, Lung Cancer
  AUC: 0.9125
CORL105, Lung Cancer
  AUC: 0.8782
COV318, Ovarian Cancer
  AUC: 0.899
COV434, Ovarian Cancer
  AUC: 0.9687
CW2, Colon/Colorectal Cancer
  AUC: 0.9939
CW9019, Rhabdomyosarcoma
  AUC: 0.9021
DAOY, Medulloblastoma
  AUC: 0.8871
DEL, Lymphoma
  AUC: 1
DETROIT562, Head and Neck Cancer
  AUC: 0.9177
DKMG, Glioblastoma
  AUC: 1
DL, Rhabdoid
  AUC: 0.7415
DMS53, Lung Cancer
  AUC: 0.712
DMS273, Lung Cancer
  AUC: 1
DND41, T-acute leukemia
  AUC: 0.9395
DU145, Prostate Cancer
  AUC: 0.9501
DU4475, Breast Cancer
  AUC: 0.7484
DV90, Lung Cancer
  AUC: 0.9154
EB1, Lymphoma
  AUC: 0.7489
EBC1, Lung Cancer
  AUC: 0.7317
ECC10, Gastric Cancer
  AUC: 0.9776
ECGI10, Esophageal Cancer
  AUC: 0.9953
EFE184, Endometrial/Uterine Cancer
  AUC: 0.7698
EFM19, Breast Cancer
  AUC: 0.7512
EFO21, Ovarian Cancer
  AUC: 0.9901
EM2, CML
  AUC: 0.9432
EN, Endometrial/Uterine Cancer
  AUC: 1
ES2, Ovarian Cancer
  AUC: 0.9355
ESS1, Endometrial/Uterine Cancer
  AUC: 0.9966
EW8, Ewing Sarcoma
  AUC: 1
EWS502, Ewing Sarcoma
  AUC: 0.7102
FADU, Head and Neck Cancer
  AUC: 0.8918
FTC133, Thyroid Cancer
  AUC: 0.9601
FTC238, Thyroid Cancer
  AUC: 0.9961
G292CLONEA141B1, Osteosarcoma
  AUC: 1
G361, Melanoma
  AUC: 0.6349
G401, Rhabdoid
  AUC: 0.8875
G402, Rhabdoid
  AUC: 0.8394
GB1, Glioblastoma
  AUC: 0.7767
GCT, Pleomorphic Sarcoma
  AUC: 0.9612
GI1, Glioblastoma
  AUC: 0.7855
GOS3, Glioblastoma
  AUC: 0.984
GP2D, Colon/Colorectal Cancer
  AUC: 0.7748
GRANTA519, Lymphoma
  AUC: 0.9571
GSS, Gastric Cancer
  AUC: 0.646
HARA, Lung Cancer
  AUC: 0.9612
HCC33, Lung Cancer
  AUC: 0.9669
HCC38, Breast Cancer
  AUC: 0.8868
HCC44, Lung Cancer
  AUC: 0.9456
HCC56, Colon/Colorectal Cancer
  AUC: 0.9605
HCC78, Lung Cancer
  AUC: 0.8972
HCC95, Lung Cancer
  AUC: 0.9968
HCC515, Lung Cancer
  AUC: 0.7803
HCC1419, Breast Cancer
  AUC: 0.8162
HCC1428, Breast Cancer
  AUC: 0.8123
HCC1438, Lung Cancer
  AUC: 0.9027
HCC1806, Breast Cancer
  AUC: 0.9831
HCC1937, Breast Cancer
  AUC: 1
HCC2108, Lung Cancer
  AUC: 0.7949
HCC4006, Lung Cancer
  AUC: 0.9703
HCT116, Colon/Colorectal Cancer
  AUC: 0.9792
HDMYZ, Lymphoma
  AUC: 0.8423
HDQP1, Breast Cancer
  AUC: 0.939
HEC1B, Endometrial/Uterine Cancer
  AUC: 0.8393
HEC6, Endometrial/Uterine Cancer
  AUC: 0.9929
HEC50B, Endometrial/Uterine Cancer
  AUC: 0.7901
HEL9217, AML
  AUC: 0.6249
HEL, AML
  AUC: 0.5914
HEP3B217, Liver Cancer
  AUC: 0.9151
HEPG2, Liver Cancer
  AUC: 0.7882
HEYA8, Ovarian Cancer
  AUC: 0.9726
HGC27, Gastric Cancer
  AUC: 0.9831
HH, Lymphoma
  AUC: 0.8948
HOS, Osteosarcoma
  AUC: 0.9628
HPBALL, T-acute leukemia
  AUC: 0.9516
HS294T, Melanoma
  AUC: 0.9659
HS766T, Pancreatic Cancer
  AUC: 0.9722
HSC2, Head and Neck Cancer
  AUC: 0.9695
HSC3, Head and Neck Cancer
  AUC: 0.9769
HT29, Colon/Colorectal Cancer
  AUC: 0.658
HT115, Colon/Colorectal Cancer
  AUC: 0.9413
HT144, Melanoma
  AUC: 1
HT1197, Bladder Cancer
  AUC: 0.9485
HT, B-cell Lymphoma
  AUC: 0.7078
HUCCT1, Bile Duct Cancer
  AUC: 0.9905
HUG1N, Gastric Cancer
  AUC: 0.95
HUH1, Liver Cancer
  AUC: 0.8468
HUH7, Liver Cancer
  AUC: 1
HUH28, Bile Duct Cancer
  AUC: 0.9991
HUPT3, Pancreatic Cancer
  AUC: 0.8687
HUPT4, Pancreatic Cancer
  AUC: 0.7771
HUT78, Lymphoma
  AUC: 0.9925
IALM, Lung Cancer
  AUC: 0.7856
IGR37, Melanoma
  AUC: 1
IGROV1, Ovarian Cancer
  AUC: 0.9601
IM95, Gastric Cancer
  AUC: 0.8194
IPC298, Melanoma
  AUC: 0.9388
ISHIKAWAHERAKLIO02ER, Endometrial/Uterine Cancer
  AUC: 0.9971
ISTMES1, Lung Cancer
  AUC: 0.9282
J82, Bladder Cancer
  AUC: 1
JEKO1, Lymphoma
  AUC: 0.9796
JHH1, Liver Cancer
  AUC: 0.7664
JHH4, Liver Cancer
  AUC: 0.9641
JHH5, Liver Cancer
  AUC: 0.6818
JHH7, Liver Cancer
  AUC: 0.9818
JHOC5, Ovarian Cancer
  AUC: 1
JHUEM7, Endometrial/Uterine Cancer
  AUC: 0.8239
JVM3, B-cell Leukemia
  AUC: 0.9481
K029AX, Melanoma
  AUC: 0.7327
KALS1, Glioblastoma
  AUC: 0.99
KARPAS620, Myeloma
  AUC: 0.9486
KATOIII, Gastric Cancer
  AUC: 0.9783
KCL22, CML
  AUC: 0.7293
KD, Rhabdoid
  AUC: 0.7052
KE37, T-acute leukemia
  AUC: 0.8049
KE39, Gastric Cancer
  AUC: 1
KELLY, Neuroblastoma
  AUC: 0.8609
KMBC2, Bladder Cancer
  AUC: 0.8012
KMS11, Myeloma
  AUC: 0.8305
KMS12BM, Myeloma
  AUC: 0.8083
KMS18, Myeloma
  AUC: 0.8881
KMS21BM, Myeloma
  AUC: 0.9427
KMS28BM, Myeloma
  AUC: 0.7058
KMS34, Myeloma
  AUC: 0.8725
KNS42, Glioblastoma
  AUC: 0.9251
KNS60, Glioblastoma
  AUC: 0.8942
KNS62, Lung Cancer
  AUC: 0.9516
KP3, Pancreatic Cancer
  AUC: 1
KPNYN, Neuroblastoma
  AUC: 0.9626
KS1, Glioma
  AUC: 0.7921
KU1919, Bladder Cancer
  AUC: 0.7361
KYM1, Rhabdoid
  AUC: 0.9475
KYSE30, Esophageal Cancer
  AUC: 0.989
KYSE150, Esophageal Cancer
  AUC: 0.988
KYSE410, Esophageal Cancer
  AUC: 0.9549
KYSE510, Esophageal Cancer
  AUC: 0.928
KYSE520, Esophageal Cancer
  AUC: 0.9953
LAMA84, CML
  AUC: 0.8874
LC1SQSF, Lung Cancer
  AUC: 0.9937
LCLC103H, Lung Cancer
  AUC: 0.945
LI7, Liver Cancer
  AUC: 0.8469
LK2, Lung Cancer
  AUC: 0.7132
LMSU, Gastric Cancer
  AUC: 0.9918
LN18, Glioblastoma
  AUC: 0.9905
LNCAPCLONEFGC, Prostate Cancer
  AUC: 0.7183
LOUNH91, Lung Cancer
  AUC: 1
LOVO, Colon/Colorectal Cancer
  AUC: 0.6312
LOXIMVI, Melanoma
  AUC: 0.8683
LS180, Colon/Colorectal Cancer
  AUC: 0.9873
LS411N, Colon/Colorectal Cancer
  AUC: 0.9732
LUDLU1, Lung Cancer
  AUC: 0.9677
LXF289, Lung Cancer
  AUC: 0.9728
M059K, Glioblastoma
  AUC: 0.8113
MALME3M, Melanoma
  AUC: 0.7988
MC116, B-cell Lymphoma
  AUC: 0.9377
MCAS, Ovarian Cancer
  AUC: 0.9952
MCF7, Breast Cancer
  AUC: 0.7913
MDAMB175VII, Breast Cancer
  AUC: 0.9996
MDAMB231, Breast Cancer
  AUC: 0.8811
MDAMB361, Breast Cancer
  AUC: 0.7401
MDAMB436, Breast Cancer
  AUC: 1
MDAMB453, Breast Cancer
  AUC: 0.5759
MDAMB468, Breast Cancer
  AUC: 1
MDST8, Colon/Colorectal Cancer
  AUC: 0.9162
MELHO, Melanoma
  AUC: 0.7224
MESSA, Uterine Sarcoma
  AUC: 0.7646
MFE280, Endometrial/Uterine Cancer
  AUC: 0.8205
